{
  "source": "patent US7989649B2",
  "about": "“Tumor imaging compounds” (Emory University, priority 2002, dated 2011)",
  "key": {"[1]": {"system": "human melanoma transplants", "details": "cited from earlier work"}, "[2]": {"details": "cited from earlier work"}, "9 L gliosarcoma tumor": {"system": "9 L gliosarcoma tumor", "details": "same rodent tumor model, 60 minutes; cited from earlier work"}, "[3]": {"details": "normal Fischer rats, 60 minutes; cited from earlier work"}, "[4]": {"details": "healthy Copenhagen rats, 60 minutes"}, "[5]": {"details": "nude Swiss mice bearing human melanoma transplants, 60 minutes"}},
  "data": [
    {"smiles": "CC(C)(N)C(=O)O", "note": "[AIB, α-aminoisobutyric acid]", "values": [
      {"measurement": "mean RC in pancreas and kidneys", "setting": "[1]; mice, within 5-15 minutes post-injection", "value": "greater than 1.8"},
      {"measurement": "mean RC in pancreas and kidneys", "setting": "[2]; rats, within 5-15 minutes post-injection", "value": "greater than 1.8"}
    ]},
    {"smiles": "CN1C(C)(C(=O)OC(C)(C)C)COS1(=O)=O", "note": "(stereo not drawn) [Compound 14b, 3,4-dimethyl-1,2,3-oxathiazolidine-4-carboxylic acid tert-butyl ester 2,2-dioxide]", "values": [
      {"measurement": "melting point", "value": "54 to 55", "unit": "°C"}
    ]},
    {"smiles": "CC([11CH3])(N)C(=O)O", "note": "(stereo not drawn) [[^11C]AIB, [^11C]α-aminoisobutyric acid]", "values": [
      {"measurement": "mean relative concentration (mean RC), brain", "setting": "[2]; [4]", "value": 0.2},
      {"measurement": "mean relative concentration (mean RC), kidneys", "setting": "[2]; [4]", "value": 10.3},
      {"measurement": "mean relative concentration (mean RC), pancreas", "setting": "[2]; [4]", "value": 6.0}
    ]},
    {"smiles": "CC(C)(N)C(=O)O", "note": "[[^14C]AIB]", "values": [
      {"measurement": "mean RC, brain", "setting": "[1]; [5]", "value": 0.23},
      {"measurement": "mean RC, kidneys", "setting": "[1]; [5]", "value": 3.4},
      {"measurement": "mean RC, pancreas", "setting": "[1]; [5]", "value": 8.6}
    ]},
    {"smiles": "OC[C@H]1OC(O)[C@H]([18F])[C@@H](O)[C@@H]1O", "note": "(stereo partly drawn) [[^18F]FDG, 2-[^18F]fluorodeoxyglucose]", "values": [
      {"measurement": "uptake in normal brain", "setting": "9 L gliosarcoma tumor", "value": 1.30, "unit": "% ID/g"},
      {"measurement": "uptake in tumor tissue", "setting": "9 L gliosarcoma tumor", "value": 1.05, "unit": "% ID/g"}
    ]},
    {"smiles": "N[C@]1(C(=O)O)C[C@@H](F)C1", "note": "[trans-[^18F]FACBC, trans-1-amino-3-[^18F]fluorocyclobutyl-1-carboxylic acid]", "values": [
      {"measurement": "pancreatic uptake", "setting": "[3]", "value": 3.4, "unit": "% ID/g"}
    ]}
  ]
}
